Experimental data reported in article PMC12598616, “Design and optimization of caspase-1-responsive fluorescent probes for pyroptosis imaging and anti-pyroptosis drug screening” (Chemical Science, 2025).

Key:
[1] = system: activated Cas-1 in primary peritoneal macrophages; assay: High-content screening / fluorescence imaging for caspase-1 modulators in primary peritoneal macrophages; assay type: cell-based, mouse; settings: MCC950 1 μM with Nig 10 μM simultaneously, after LPS; FPy1 5 μM
From the text: The efficient and rapid discovery of Cas-1 modulators is of significant importance considering the therapeutic potential of Cas-1 in various diseases.[39,40] Therefore, we employed FPy1 to construct a high-content screening system aimed at identifying Cas-1 modulators. The level of activated Cas-1 in cells is influenced by multiple factors. To reduce the impact of factors that affect Cas-1 activation in cells, we utilized the NLRP3 inflammasome-mediated Cas-1 activation model, administering the drug during the second stage where the zymogen was converted into activated Cas-1. MCC950, a selective NLRP3 inflammasome inhibitor that could suppress Cas-1 activation, was selected as the positive drug.[41] […] To validate the efficacy of the Cas-1 modulator screening system (Fig. 6a), we first observed the fluorescence images of PMs stained with FPy1 (5 μM) in the control group, model group, and positive drug group. […] Subsequently, the impact of 25 natural products (10 μM) on activated Cas-1 were studied using high-content analysis (Fig. S20). […] To determine whether deoxyshikonin directly binds to Cas-1 and inhibits its activity, we conducted fluorescence detection following co-incubation of deoxyshikonin, FPy1 and Cas-1. […]
Harvested rat discs were fixed in 4 % buffered paraformaldehyde for 24 hours, decalcified in 10 % ethylenediaminetetraacetic acid (EDTA, Solarbio, E8030) solution for 1 month, embedded in paraffin, and sectioned at a thickness of 5 μm. […] Stained sections were evaluated by three independent raters, blinded to the research protocol, and measurements were averaged for statistical analysis. […]
In vivo fluorescence imaging of intervertebral disc degeneration
Twelve rats were modeled with needle puncture-induced intervertebral disc degeneration at the Co5/6, Co6/7 and Co 7/8 levels. […] In vivo fluorescence images were acquired using an in vivo Imaging System (PerkinElmer). […]
In vivo fluorescence imaging of osteoarthritis […]

caspase-1 [2] = molecular target: T1, caspase-1 (Homo sapiens, UniProt P29466); assay: Reaction time of probes for caspase-1; assay type: biochemical; settings: probe 5 μM, Cas-1 2 U/mL, assay buffer, 37 °C
T1 sequence (P29466 120-297 limits assumed): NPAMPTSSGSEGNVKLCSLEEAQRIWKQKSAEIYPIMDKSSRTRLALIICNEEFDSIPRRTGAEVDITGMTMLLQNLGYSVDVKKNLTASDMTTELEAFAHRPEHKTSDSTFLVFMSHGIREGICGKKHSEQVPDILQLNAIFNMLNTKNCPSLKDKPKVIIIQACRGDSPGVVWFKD
T1 sequence (P29466 317-404 limits assumed): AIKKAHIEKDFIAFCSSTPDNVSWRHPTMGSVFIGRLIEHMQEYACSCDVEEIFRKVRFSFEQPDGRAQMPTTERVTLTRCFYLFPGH
Protocol: The spectral and chemical properties of all probes were then evaluated. Upon interaction with Cas-1, the specific peptide of the probes is cleaved, leading to the disruption of the FRET process in the system and the recovery of donor fluorescence (Fig. 2a). Prior to fluorescence detection, the UV-vis absorption spectra of the probes were acquired. […] Subsequently, the sensitivity of the probes towards Cas-1 was measured in HEPES buffer (50 mM HEPES, 50 mM NaCl, 0.1% chaps, 5% glycerol, 10 mM DTT, 10 mM EDTA). […] The response differences among the probes were more intuitively observed by analyzing the standard curves of fluorescence intensity at 585 nm against the concentration of Cas-1 (Fig. 2b). […] The reaction kinetics of the probes were also measured by monitoring the fluorescence intensity of FPy1, YPy1 and WPy1 (0.5–4 μM) following incubation with Cas-1 (2 U mL^−1) (Fig. S3a–f). […] The reaction time of the probes was also investigated by monitoring the fluorescence spectra of the probes (5 μM) incubated with Cas-1 (2 U mL^−1) at various time intervals (Fig. S4a–c). […] Finally, the selectivity of the probes was evaluated. […]
(§1) To investigate the sensitivity of the probes for caspase-1, varying concentration of caspase-1 (0, 0.2, 0.4, 0.6, 0.8, 1.0, 1.25, 1.5, 1.75, 2, 2.5, 3 U/mL) were incubated with FPy1 (5 μM), YPy1 (5 μM) and WPy1 (5 μM) respectively in caspase-1 assay buffer (50 mM HEPES, 50 mM NaCl, 0.1 % chaps, 5 % glycerol, 10 mM DTT, 10 mM EDTA) at 37 °C for 2 hours. Fluorescence spectra were recorded using Hitachi F-2700 spectrophotometer with an excitation at 510 nm (Photomultiplier voltage 700 V; Slit widths ex: 10 nm and em =5.0 nm). The fluorescence intensity of FPy1, YPy1 and WPy1 at 585 nm were plotted against the concentration of caspase-1, and a linear regression fitted from the corresponding concentration of caspase-1, and linear regression was applied to determine the slope k. The limit of detection (LoD) was calculated from 3σ/k, in which σ represents the standard deviation of 15 blank measurements. […]

caspase-1 [3] = molecular target: T1, caspase-1; assay: Sensitivity of probes for caspase-1 (fluorescence at 585 nm); assay type: biochemical; settings: probe 5 μM
Protocol: The spectral and chemical properties of all probes were then evaluated. Upon interaction with Cas-1, the specific peptide of the probes is cleaved, leading to the disruption of the FRET process in the system and the recovery of donor fluorescence (Fig. 2a). Prior to fluorescence detection, the UV-vis absorption spectra of the probes were acquired. […] Subsequently, the sensitivity of the probes towards Cas-1 was measured in HEPES buffer (50 mM HEPES, 50 mM NaCl, 0.1% chaps, 5% glycerol, 10 mM DTT, 10 mM EDTA). […] The response differences among the probes were more intuitively observed by analyzing the standard curves of fluorescence intensity at 585 nm against the concentration of Cas-1 (Fig. 2b). […] The reaction kinetics of the probes were also measured by monitoring the fluorescence intensity of FPy1, YPy1 and WPy1 (0.5–4 μM) following incubation with Cas-1 (2 U mL^−1) (Fig. S3a–f). […] The reaction time of the probes was also investigated by monitoring the fluorescence spectra of the probes (5 μM) incubated with Cas-1 (2 U mL^−1) at various time intervals (Fig. S4a–c). […] Finally, the selectivity of the probes was evaluated. A series of potential biologically relevant interferents were selected, and the results illustrated that these interferents had no effect on the probes (Fig. S5a–c). Further selectivity validation was performed through incubating with caspase-3 (1 μg mL^−1), caspase-4 (2 U mL^−1), caspase-8 (1 μg mL^−1) from the caspase protease family. […] Therefore, FPy1 appeared to be the prime candidate for Cas-1 imaging applications. […]
Cell culture plates were sourced from Wuxi NEST Biotechnology. Recombinant human caspase-1, caspase-3, caspase-4, and caspase-8 were obtained from Abcam and MCE (Shanghai, China). Anti-cleaved caspase-1 antibody, anti-GAPDH antibody, and goat anti-Rabbit/anti-mouse lgG/HRP were purchased from CST (USA) and Beyotime […]
(§2) (Shanghai, China). […]
(§3) Medical College (ethical approval number ZJCLA-IACUC-20011003).
(§4) (also on this page, place not known: Wang,*f, Wang*abg Supplementary Information (SI) for Chemical Science. This journal is © The Royal Society of Chemistry 2025)
(§5) (1 picture or pasted object on this page, not shown here) […]
mixture was stirred for 3 h. DCM was removed under vacuum, and the residue was purified by silica gel column chromatography (DCM/MeOH, 180/1) to afford WPy1 as a dark purple solid (21 mg, 6 % yield). HRMS (ESI+): calcd […]
Analysis of probe purity by LC-MSD
Prepare dilute solutions of FPy1, YPy1 and WPy1 using chromatographic-grade acetonitrile and transfer them to sample vials. Begin with an initial mobile phase consisting of 20% acetonitrile (0.05 % formic acid) and 80% H2O (0.05 % formic acid). Over the course of 30 minutes, implement a gradient change to a mobile phase of 90% acetonitrile (0.05 % formic acid) and 10% H2O (0.05 % FA). Under the elution conditions, LC-MSD was performed on the above probe solutions and blank solvent acetonitrile.
Sensitivity of probes for caspase-1
To investigate the sensitivity of the probes for caspase-1, varying concentration of caspase-1 (0, 0.2, 0.4, 0.6, 0.8, 1.0, 1.25, 1.5, 1.75, 2, 2.5, 3 U/mL) were incubated with FPy1 (5 μM), YPy1 (5 μM) and WPy1 (5 μM) respectively in caspase-1 assay buffer (50 mM HEPES, 50 mM NaCl, 0.1 % chaps, 5 % glycerol, 10 mM DTT, 10 mM EDTA) at 37 °C for 2 hours. Fluorescence spectra were recorded using Hitachi F-2700 spectrophotometer with an excitation at 510 nm (Photomultiplier voltage 700 V; Slit widths ex: 10 nm and em =5.0 nm). The fluorescence intensity of FPy1, YPy1 and WPy1 at 585 nm were plotted against the concentration of caspase-1, and a linear regression fitted from the corresponding concentration of caspase-1, and linear regression was applied to determine the slope k. The limit of detection (LoD) was calculated from 3σ/k, in which σ represents the standard deviation of 15 blank measurements.
Various concentrations of FPy1, YPy1 and WPy1 (0.5, 1, 2, 4 μM) in 100 μL enzyme assay buffer (50 mM HEPES, 50 […]

caspase-8 = assay: Selectivity of probes: caspase-8; assay type: biochemical, human; settings: caspase-8 1 μg/mL, 37 °C, 2 h, λex 510 nm, λem 585 nm
From the text: The resin used for SPPS was purchased from GL Biochem (Shanghai, China). Lipopolysaccharide (LPS, L2630), Nigericin and ATP (11140965001) were purchased from Merck (Shanghai, China) and Invitrogen (Shanghai, China), respectively. Cell culture plates were sourced from Wuxi NEST Biotechnology. Recombinant human caspase-1, caspase-3, caspase-4, and caspase-8 were obtained from Abcam and MCE (Shanghai, China). Anti-cleaved caspase-1 antibody, anti-GAPDH antibody, and goat anti-Rabbit/anti-mouse lgG/HRP were purchased from CST (USA) and Beyotime […]
as §2, §3, §4, §5
mixture was stirred for 3 h. […]
as §1
The fluorescence intensity at 585 nm was measured on a Tecan Infinite M1000 Multi-function microplate reader (λex = 510 nm) at 37 °C every 2 minutes. The K M value of probes was determined from the Lineweaver-Burk plot. […]

Compound	fluorescence intensity of FPy1, positive drug group vs model group [1]	time to maximum fluorescence intensity at 585 nm (reaction time) (caspase-1 [2])	maximum fluorescence intensity at 585 nm (caspase-1 [3]; compared with FPy1 and YPy1)	baseline fluorescence intensity at 585 nm (caspase-1 [3]; compared with other probes)	linear fitting range of Cas-1 concentration (caspase-1 [3]; fluorescence intensity at 585 nm vs Cas-1 concentration, 37 °C, 2 h)	enhancement of fluorescence intensity at 585 nm (caspase-1 [3]; Cas-1 0–3 U/mL, assay buffer 50 mM HEPES, 50 mM NaCl, 0.1% chaps, 5% glycerol, 10 mM DTT, 10 mM EDTA, 37 °C, 2 h, λex 510 nm)	fluorescence response to caspase-8 (caspase-8)
CC(C)(O)c1coc(S(=O)(=O)NC(=O)Nc2c3c(cc4c2CCC4)CCC3)c1 [MCC950, reference compound]	significantly lower than in the model group	–	–	–	–	–	–
–WEHDG– [WPy1, caspase-1-responsive FRET probe with recognition peptide –WEHDG–; RhoB donor, hNR quencher]	–	60 min	significantly lower than that of FPy1 and YPy1	lower baseline fluorescence intensity	0–1.25 U mL^−1	about 11.5 fold	a certain level of response to caspase-8
